What is called IC50 is the concentration at which inhibition is half-maximal.

For this assay, the target named is T1, full-length human PKCι (Homo sapiens, UniProt P41743).
T1 construct: Recombinant, full-length human PKCι expressed in Sf21 insect cells is also commercially available; purchased; host or cells: Sf21 insect cells
T1 sequence (P41743 1-596): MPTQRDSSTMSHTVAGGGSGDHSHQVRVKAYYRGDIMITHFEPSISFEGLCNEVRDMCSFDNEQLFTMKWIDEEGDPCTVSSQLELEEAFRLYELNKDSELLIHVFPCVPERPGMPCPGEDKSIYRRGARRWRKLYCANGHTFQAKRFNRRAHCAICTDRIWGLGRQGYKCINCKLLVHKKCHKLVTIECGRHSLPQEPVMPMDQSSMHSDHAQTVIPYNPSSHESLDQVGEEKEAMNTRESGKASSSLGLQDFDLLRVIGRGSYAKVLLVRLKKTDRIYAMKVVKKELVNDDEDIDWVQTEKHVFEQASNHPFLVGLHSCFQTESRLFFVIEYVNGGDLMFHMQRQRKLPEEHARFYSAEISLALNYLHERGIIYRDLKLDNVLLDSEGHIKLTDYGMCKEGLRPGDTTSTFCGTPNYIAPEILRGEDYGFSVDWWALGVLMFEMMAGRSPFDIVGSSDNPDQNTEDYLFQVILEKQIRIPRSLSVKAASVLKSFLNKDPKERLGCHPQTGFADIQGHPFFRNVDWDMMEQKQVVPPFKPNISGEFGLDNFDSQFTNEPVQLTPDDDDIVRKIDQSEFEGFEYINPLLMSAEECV
The experiment in a line: PKCι IC50 IMAP fluorescence polarisation assay, full-length enzyme. The class given is biochemical. As to conditions: full length PKCi at 15 μM ATP; read-out: IC50 in IMAP assay against full length PKCi.
Regarding `CC(C)(C)c1sc2c(NC[C@@H](N)Cc3ccccc3)nc(-c3ccncc3)nc2c1-c1ccn[nH]1` [compound 468, (S)-N*1*-[6-tert-Butyl-7-(2H-pyrazol-3-yl)-2-pyridin-4-yl-thieno[3,2-d]pyrimidin-4-yl]-3-phenyl-propane-1,2-diamine], the IC50 lay within 1 to 10 µM. For the compound `Cc1c(-c2ccnn2C)sc2c(N[C@@H]3CCNC3)nc(-c3ccncc3)nc12` [compound 469, [7-Methyl-6-(2-methyl-2H-pyrazol-3-yl)-2-pyridin-4-yl-thieno[3,2-d]pyrimidin-4-l]-(R)-pyrrolidin-3-yl-amine], the IC50 was in the range of 10 to 40 µM. Consider `CCC(C)(C)C(=O)Nc1csc2c(N[C@@H]3CCNC3)nc(-c3ccncc3)nc12` [compound 471, 2,2-Dimethyl-N-[2-pyridin-4-yl-4-((R)-pyrrolidin-3-ylamino)-thieno[3,2-d]pyrimidin-7-yl]-butyramide], for which the IC50 fell in the range of 10 to 40 µM. Regarding `CCC(C)(C)C(=O)Nc1csc2c(NC[C@@H](N)Cc3ccccc3)nc(-c3ccncc3)nc12` [compound 472, N-[4-((S)-2-Amino-3-phenyl-propylamino)-2-pyridin-4-yl-thieno[3,2-d]pyrimidin-7-yl]-2,2-dimethyl-butyramide], the IC50 fell in the range of 10 to 40 µM. For the compound `O=C(Nc1csc2c(N[C@@H]3CCNC3)nc(-c3ccncc3)nc12)C1CCCCC1` [compound 473, Cyclohexanecarboxylic acid [2-pyridin-4-yl-4-((R)-pyrrolidin-3-ylamino)-thieno[3,2-d]pyrimidin-7-yl]-amide], the IC50 is 10 to 40 µM. The result for `N[C@H](CNc1nc(-c2ccncc2)nc2c(NC(=O)C3CCCCC3)csc12)Cc1ccccc1` [compound 474, Cyclohexanecarboxylic acid [4-((S)-2-amino-3-phenyl-propylamino)-2-pyridin-4-yl-thieno[3,2-d]pyrimidin-7-yl]-amide] reads 10 to 40 µM; that for `O=C(Nc1csc2c(N[C@@H]3CCNC3)nc(-c3ccncc3)nc12)C1CCCC1` [compound 475, Cyclopentanecarboxylic acid [2-pyridin-4-yl-4-((R)-pyrrolidin-3-ylamino)-thieno[3,2-d]pyrimidin-7-yl]-amide], 10 to 40 µM; that for `N[C@H](CNc1nc(-c2ccncc2)nc2c(Nc3ccccc3)csc12)Cc1ccccc1` [compound 485, N*4*-((S)-2-Amino-3-phenyl-propyl)-N*7*-phenyl-2-pyridin-4-yl-thieno[3,2-d]pyrimidine-4,7-diamine], 0.1 to 1 µM.

Take `N[C@H](CNc1nc(-c2ccncc2)nc2c(Nc3ccccn3)csc12)Cc1ccccc1` [compound 486, N*4*-((S)-2-Amino-3-phenyl-propyl)-2-pyridin-4-yl-N*7*-pyridin-2-yl-thieno[3,2-d]pyrimidine-4,7-diamine]: the IC50 was under 0.1 µM.

For `c1ccc(Nc2csc3c(N[C@@H]4CCNC4)nc(-c4ccncc4)nc23)nc1` [compound 487, 2-Pyridin-4-yl-N*7*- pyridin-2-yl-N*4*-(R)-pyrrolidin-3-yl-thieno[3,2-d]pyrimidine-4,7-diamine], the IC50 was 1 to 10 µM. The result for `N[C@H](CNc1nc(-c2ccncc2)nc2c(Nc3ncccn3)csc12)Cc1ccccc1` [compound 488, N*4*-((S)-2-Amino-3-phenyl-propyl)-2-pyridin-4-yl-N*7*-pyrimidin-2-yl-thieno[3,2-d]pyrimidine-4,7-diamine] reads 0.1 to 1 µM. Take `N[C@H](CNc1nc(-c2ccncc2)nc2c(Nc3ccncn3)csc12)Cc1ccccc1` [compound 489, N*4*-((S)-2-Amino-3-phenyl-propyl)-2-pyridin-4-yl-N*7*-pyrimidin-4-yl-thieno[3,2-d]pyrimidine-4,7-diamine]: the IC50 lay within 1 to 10 µM. On to `Cc1cc(Nc2csc3c(NC[C@@H](N)Cc4ccccc4)nc(-c4ccncc4)nc23)no1` [compound 490, N*4*-((S)-2-Amino-3-phenyl-propyl)-N*7*-(5-methyl-isoxazol-3-yl)-2-pyridin-4-yl-thieno[3,2-d]pyrimidine-4,7-diamine], for which the IC50 was under 0.1 µM.

Turning to `N[C@H](CNc1nc(-c2ccncc2F)nc2c(Nc3ccccc3)csc12)Cc1ccccc1` [compound 491, N*4*-((S)-2-Amino-3-phenyl-propyl)-2-(3-fluoro-pyridin-4-yl)-N*7*-phenyl-thieno[3,2-d]pyrimidine-4,7-diamine], the IC50 was in the range of 1 to 10 µM. Turning to `Cc1cccc(Nc2csc3c(N[C@@H]4CCNC4)nc(-c4ccncc4F)nc23)c1` [compound 492, 2-(3-Fluoro-pyridin-4-yl)-N*4*-(R)-pyrrolidin-3-yl-N*7*-m-tolyl-thieno[3,2-d]pyrimidine-4,7-diamine], the IC50 lay within 10 to 40 µM. The figure for `Fc1ccc(Nc2csc3c(N[C@@H]4CCNC4)nc(-c4ccncc4F)nc23)cc1` [compound 493, N*7*-(4-Fluoro-phenyl)-2-(3-fluoro-pyridin-4-yl)-N*4*-(R)-pyrrolidin-3-yl-thieno[3,2-d]pyrimidine-4,7-diamine] is 10 to 40 µM; for `Fc1cnccc1-c1nc(N[C@@H]2CCNC2)c2scc(Nc3cccnc3)c2n1` [compound 494, 2-(3-Fluoro-pyridin-4-yl)-N*7*-pyridin-3-yl-N*4*- (R)-pyrrolidin-3-yl-thieno[3,2-d]pyrimidine-4,7-diamine] it is 10 to 40 µM; for `Fc1cnccc1-c1nc(N[C@@H]2CCNC2)c2scc(Nc3ccccn3)c2n1` [compound 495, 2-(3-Fluoro-pyridin-4-yl)-N*7*-pyridin-2-yl-N*4*- (R)-pyrrolidin-3-yl-thieno[3,2-d]pyrimidine-4,7-diamine] it is 10 to 40 µM. Turning to `Cc1cc(Nc2csc3c(N[C@@H]4CCNC4)nc(-c4ccncc4F)nc23)no1` [compound 496, 2-(3-Fluoro-pyridin-4-yl)-N*7*-(5-methyl-isoxazol-3-yl)-N*4*-(R)-pyrrolidin-3-yl-thieno[3,2-d]pyrimidine-4,7-diamine], the half-inhibitory concentration (IC50) is 10 to 40 µM. As to `Fc1cnccc1-c1nc(N[C@@H]2CCNC2)c2scc(Nc3ccon3)c2n1` [compound 497, 2-(3-Fluoro-pyridin-4-yl)-N*7*-isoxazol-3-yl-N*4*- (R)-pyrrolidin-3-yl-thieno[3,2-d]pyrimidine-4,7-diamine], the IC50 was in the range of 10 to 40 µM. `Cc1ccccc1Nc1csc2c(N[C@@H]3CCNC3)nc(-c3ccncc3F)nc12` [compound 498, 2-(3-Fluoro-pyridin-4-yl)-N*4*-(R)-pyrrolidin-3-yl-N*7*-o-tolyl-thieno[3,2-d]pyrimidine-4,7-diamine]: the IC50 was 1 to 10 µM. For the compound `Fc1cccc(Nc2csc3c(N[C@@H]4CCNC4)nc(-c4ccncc4F)nc23)c1` [compound 499, N*7*-(3-Fluoro-phenyl)-2-(3-fluoro-pyridin-4-yl)-N*4*-(R)-pyrrolidin-3-yl-thieno[3,2-d]pyrimidine-4,7-diamine], the IC50 was 1 to 10 µM. For the compound `Fc1ccccc1Nc1csc2c(N[C@@H]3CCNC3)nc(-c3ccncc3F)nc12` [compound 500, N*7*-(2-Fluoro-phenyl)-2-(3-fluoro-pyridin-4-yl)-N*4*-(R)-pyrrolidin-3-yl-thieno[3,2-d]pyrimidine-4,7-diamine], the IC50 lay within 0.1 to 1 µM. Turning to `N[C@H](CNc1nc(-c2ccncc2F)nc2c(C#CCCO)csc12)Cc1ccccc1` [compound 501, 4-[4-((S)-2-Amino-3-phenyl-propylamino)-2-(3-fluoro-pyridin-4-yl)-thieno[3,2-d]pyrimidin-7-yl]-but-3-yn-1-ol], the IC50 is 0.1 to 1 µM. For the compound `Cc1c(C#CC(C)(C)O)sc2c(N[C@@H]3CCNC3)nc(-c3ccncc3)nc12` [compound 502, 2-Methyl-4-[7-methyl-2-pyridin-4-yl-4-((R)-pyrrolidin-3-ylamino)-thieno[3,2-d]pyrimidin-6-yl]-but-3-yn-2-ol], the IC50 fell in the range of 1 to 10 µM. Consider `Cc1sc2c(N[C@@H]3CCNC3)nc(-c3ccncc3)nc2c1C#CC(C)(C)O` [compound 503, 2-Methyl-4-[6-methyl-2-pyridin-4-yl-4-((R)-pyrrolidin-3-ylamino)-thieno[3,2-d]pyrimidin-7-yl]-but-3-yn-2-ol], for which the IC50 lay in the range of 0.1 to 1 µM.

For the compound `Cc1sc2c(NC[C@@H](N)Cc3ccccc3)nc(-c3ccncc3)nc2c1C#CC(C)(C)O` [compound 504, 4-[4-((S)-2-Amino-3-phenyl-propylamino)-6-methyl-2-pyridin-4-yl-thieno[3,2-d]pyrimidin-7-yl]-2-methyl-but-3-yn-2-ol], the IC50 is under 0.1 µM. Take `CC(C)(O)C#Cc1c(C(C)(C)C)sc2c(NC[C@@H](N)Cc3ccccc3)nc(-c3ccncc3)nc12` [compound 505, 4-[4-((S)-2-Amino-3-phenyl-propylamino)-6-tert-butyl-2-pyridin-4-yl-thieno[3,2-d]pyrimidin-7-yl]-2-methyl-but-3-yn-2-ol]: the IC50 is 1 to 10 µM.

For `N[C@H](CNc1nc(-c2ccncc2F)nc2c(C#CCO)csc12)Cc1ccccc1` [compound 506, 3-[4-((S)-2-Amino-3-phenyl-propylamino)-2-(3-fluoro-pyridin-4-yl)-thieno[3,2-d]pyrimidin-7-yl]-prop-2-yn-1-ol], the IC50 was under 0.1 µM. For `N[C@H](CNc1nc(-c2ccncc2F)nc2c(C#CC3(O)CCC3)csc12)Cc1ccccc1` [compound 507, 1-[4-((S)-2-Amino-3-phenyl-propylamino)-2-(3-fluoro-pyridin-4-yl)-thieno[3,2-d]pyrimidin-7-ylethynyl]-cyclobutanol], the IC50 was 0.1 to 1 µM.
